For test [1], the target named is T1, human erythrocytes CuZn-SOD (Homo sapiens, UniProt P00441).
T1 construct: commercial Cu/Zn-SOD from human erythrocytes (Sigma-Aldrich); purchased Sigma-Aldrich; host or cells: human erythrocytes
Put plainly: SOD enzymatic inhibition, CuZn-SOD. The test is classed as biochemical. The note with it: 100 to 0.1 µM, read-out: CuZn-SOD IC50 (in brackets). The procedure: (§1) Excreted Fe-SOD protein—obtained and quantified as previously described [64]—and commercial Cu/Zn-SOD from human erythrocytes (Sigma-Aldrich) were exposed to the tested compounds at a concentration range from 100 to 0.1 µM to determine in vitro activities using the method previously described.

Test [2] has as its system Trypanosoma cruzi amastigotes in Vero cells. Description: Infection rate and amastigotes per Vero cell over 10 days. The test is classed as cell-based. The note with it: IC25 concentrations, measured at 2 days intervals for 10 days. On the procedure: Before going ahead on in vivo trials, the in vitro infection rate and the average number of amastigotes per Vero cell were also measured at 2 days intervals for 10 days after treating the infected cultures with BZN and potential candidates (8, 10, and 15) (Figure 1) at ICH25 concentrations resulting from amastigotes screening. […]. Fast-acting drugs are urgently needed, and this feature is an additional advantage since they can eliminate the parasite in a few doses.
(§2) Trypanocidal activity against amastigotes was determined according to the literature reported previously. […]. […] Each compound concentration was tested in triplicate in four separate determinations.
Figure 1 (A) Percentage of infected Vero cells and (B) number of amastigotes of Trypanosoma cruzi per Vero cell exposed to benznidazole (BZN), 8, 10 and 15. Values constitute means of three separate determinations ± standard deviation. * Significant differences between untreated and treated parasites for α = 0.05. dpi, days post-infection.

In test [3] the test system is Trypanosoma cruzi. Put plainly: Parasitemia reactivation after immunosuppression in BALB/c mice. The test is classed as in vivo. As to conditions: acute and chronic CD, 20 mg/kg per day for 5 days. The procedure:
Secondly, the experimental cure was determined using a double checking widely used in in vivo trypanocidal trials. This double checking—based on immunosuppression and PCR (Figure 2B,C, respectively)—was performed to evaluate the treatment effectiveness and the disease extent in both acute and chronic CD at the end of the in vivo timeline. The mice whose parasitemia and PCR remain negative after immunosuppression are considered cured.
Immunosuppression enhances the reactivation of any residual infection, which is proportional to the parasite survival rate.
(§3) Infection was carried out by intraperitoneal inoculation of 5 × 10^5 BTs of T. cruzi per mouse in 0.2 mL PBS [56]. The mice were treated by oral route (~200 µL) once daily for 5 consecutive days. The treatment for mice treated in the acute and chronic phases began when the infection was confirmed (9th day post-infection (dpi)) and was established that the animals had entered the chronic phase (100th dpi), respectively.
(§4) The mice were divided into six groups (n = 3 per group): 0, negative control group (uninfected and untreated mice); I, positive control group (infected and untreated mice); II, BZN group (mice infected and treated with BZN); III, 8 group (mice infected and treated with 8); IV, 10 group (mice infected and treated with 10); V, 15 group (mice infected and treated with 15). The tested compounds and BZN were prepared at 2 mg·mL^−1 in an aqueous suspension vehicle containing 5% (v/v) DMSO and 0.5% (w/v) hydroxypropyl methylcellulose, as previously reported. Therefore, doses of 20 mg·kg^−1 per day were administered for 5 consecutive days, and vehicle only was administered in the negative and positive control groups.
(§5) All in vivo assays for the evaluation of compounds in the acute and chronic CD (Scheme 1)—monitoring of parasitemia, immunosuppression, PCR [59, 60], ELISA [56], and clinical analysis [56]—were performed as previously described. PCR was based on the Spliced Leader (SL) intergenic region sequence of T. cruzi (for detailed description, see literature reported previously).

In test [4] the test system is Trypanosoma cruzi. Description: Parasitemia monitoring in infected BALB/c mice, acute Chagas disease. Type of test: in vivo. As to conditions: oral 20 mg/kg per day for 5 days from 9th dpi, versus untreated. The procedure:
as §3, §4, §5

The test system of test [5] is Trypanosoma cruzi bloodstream trypomastigotes (BTs). Put plainly: Screening against bloodstream trypomastigotes (resazurin). Type of test: cell-based. The note with it: for Selectivity Index Trypomast.: IC50 Vero cells/IC50 trypomastigotes; for IC50: Trypanosoma cruzi, Table 1, bloodstream trypomastigotes, 24 h treatment + 4 h resazurin, read-out: Activity IC50 Trypomast. On the procedure:
2 × 10^6 Bloodstream trypomastigotes (BTs), obtained by cardiac puncture from infected BALB/c mice as previously described, were treated by adding the tested compounds at a concentration range from 50 to 0.1 µM in 96-well microplates (200 µL·well^−1) at 37 °C. After 24 h of treatment, resazurin sodium salt (Sigma-Aldrich) was added to be incubated for further 4 h. Finally, trypanocidal activity was determined following the same procedure as described to assess the trypanocidal activity in the epimastigotes. Each compound concentration was tested in triplicate in three independent experiments.
(Alamar Blue is a resazurin reagent that responds to reducing activity.)

The subject of test [6] is Mammalian Vero cells. Put plainly: Cytotoxicity test on Vero cells (resazurin). The test is classed as cell-based. As to conditions: Chlorocebus sabaeus, 72 h; Table 1; Vero cells, 48 h + 24 h resazurin; read-out: Toxicity IC50 Vero Cell. On the procedure: Mammalian Vero cells (EACC No. 84113001), cultured as previously reported, were used to determine the cytotoxicity of the tested compounds [56]. In short, 1.25 × 10^4 Vero cells·mL^−1 were treated by adding the compounds at a concentration range from 400 to 1 µM in 96-well microplates (200 µL·well^−1) at 37 °C for 48 h. Subsequently, resazurin sodium salt (Sigma-Aldrich) was added to be incubated for further 24 h. Finally, cell viability was determined following the same procedure as described to assess the trypanocidal activity in the epimastigotes. Each compound concentration was tested in triplicate in three independent experiments.

Test [7] concerns Trypanosoma cruzi. Put plainly: Anti-T. cruzi IgG (ELISA) and splenomegaly in treated BALB/c mice. Type of test: in vivo. The note with it: treated BALB/c mice versus untreated; excluding IgG levels of chronic CD. The procedure:
Otherwise, the immune status of the mice was evaluated—through the titer of total anti-T. cruzi IgG and the splenomegaly (Figure S1)—since it is a characteristic linked to the parasite load and the effectiveness ascribed to the potential candidates. […].
as §5
Figure S1. A) Anti-Trypanosoma cruzi immunoglobulin G levels, expressed in absorbance at 492 nm, at different days post-infection (dpi) for each group of mice treated during the acute and chronic phases of Chagas disease: control (untreated), benznidazole (BZN), 8, 10 and 15. Blank and uninfected mice are also […]
included. […] Values are the means of three mice ± standard deviation. (IS) immunosuppression. * Significant differences between untreated and treated mice for α =
0.05. B) Weight percentage of spleens in the chronic Chagas disease for each group of mice treated during the acute and chronic phases of the disease: control (untreated), benznidazole (BZN), 8, 10 and 15. Values are the means of three mice ± standard deviation. In brackets: reduction of splenomegaly in comparison to […]
(1 picture or pasted object on this page, not shown here)
(In an ELISA, binding on a coated surface is turned into a signal by an enzyme label.)

In test [8] the test system is Trypanosoma cruzi Fe-SOD. Description: SOD enzymatic inhibition, Fe-SOD. Type of test: biochemical. On the procedure: as §1
For test [9], the system named is epimastigotes of T. cruzi Arequipa. Description: 1H NMR analysis of excreted metabolites. Type of test: cell-based, Trypanosoma cruzi. As to conditions: IC25 concentrations, 72 h. The procedure: 5 × 10^5 epimastigotes·mL^−1 of T. cruzi Arequipa were treated by adding the tested compounds at IC25 concentrations in 25 cm^2 cell culture flasks at 28 °C for 72 h. Untreated controls were also included. Cultures were then centrifuged and filtered, and the metabolites of the supernatants were analyzed using a ^1H NMR spectrometer (VARIAN DIRECT DRIVE 500 MHz […]) with AutoX probe, D2O as solvent and 2,2-dimethyl-2-silapentane-5-sulphonate as the reference signal. Chemical shifts were expressed in parts per million (ppm), and analyses were conducted as previously reported.

Test [10] concerns Trypanosoma cruzi intracellular amastigotes. Put plainly: Screening against intracellular amastigotes in Vero cells (Giemsa counting). As to conditions: for Selectivity Index Amast.: IC50 Vero cells/IC50 amastigotes; for IC50: Trypanosoma cruzi, Table 1, intracellular amastigotes in Vero cells, 72 h, read-out: Activity IC50 Amast. The test is classed as cell-based. On the procedure: as §2

In test [11] the test system is epimastigotes of T. cruzi Arequipa strain. Description: Screening against extracellular epimastigotes (resazurin). The test is classed as cell-based, Trypanosoma cruzi. As to conditions: for Selectivity Index Epimast.: IC50 Vero cells/IC50 epimastigotes; for IC50: Trypanosoma cruzi. On the procedure:
Trypanocidal activity against epimastigotes of T. cruzi Arequipa strain (MHOM/Pe/2011/Arequipa, discrete typing unit V) was tested as previously described. In short, 5 × 10^5 epimastigotes·mL^−1 were treated by adding the tested compounds at a concentration range from 100 to 0.2 µM in 96-well microplates (200 µL·well^−1) for 48 h. Subsequently, resazurin sodium salt (Sigma-Aldrich) was added to be incubated for further 24 h. Finally, the absorbance was measured, and the trypanocidal activity was expressed as the IC50 (inhibitory concentration 50) using GraphPad Prism 6 software. Each compound concentration was tested in triplicate in three independent experiments.

Where [12] appears, read: Table 1, T. cruzi epimastigotes, 48 h treatment + 24 h resazurin, read-out: Activity IC50 Epimast.
[13] abbreviates: Table S1, cultured epimastigote form of T. cruzi, read-out: Activity IC50.
Where [14] appears, read: 72 h, Table 1, T. cruzi epimastigotes, 48 h treatment + 24 h resazurin, read-out: Activity IC50 Epimast.

Like-named read-outs stand apart in the source and are kept apart here.

T1 sequence (P00441 whole entry): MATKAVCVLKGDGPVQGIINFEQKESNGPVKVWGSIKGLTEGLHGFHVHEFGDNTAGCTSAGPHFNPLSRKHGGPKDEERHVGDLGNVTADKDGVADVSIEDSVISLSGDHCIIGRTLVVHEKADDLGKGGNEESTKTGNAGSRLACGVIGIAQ

Usually IC50 stands for the concentration at which inhibition is half-maximal. Turning to `CSc1ccc(C[Se][Se]Cc2ccc(SC)cc2)cc1` [compound 10], the IC50 was greater than 100000 nM in test [1]; 1700 ± 300 nM in test [5]; 1200 ± 200 nM in test [10]; 1800 ± 200 nM in test [11] (setting [12]); no more than 10000 nM in test [11] (setting [13]). Also, the “infection rate and average number of amastigotes per Vero cell” value in test [2] is “decrease in both infection rate and number of amastigotes per cell in a time-dependent manner”. The “reactivation of infection after immunosuppression (in words)” value in test [3] is listed as “light activity”. Further, in test [4], the “parasitemia levels (counting BTs) during the acute CD” value is recorded as “slight activity”. Besides, the “Selectivity Index Trypomast.” value in test [5] stood at 79. Moreover, the CC50 in [6] worked out at 135000 ± 6300 nM. The “total anti-T. cruzi IgG levels and splenomegaly” value in test [7] is listed as “Slight or non-significant reductions”. This molecule had a Fe-SOD inhibition in test [8] (at 100 µM) of 100%. Further, the “variation of excreted metabolites versus untreated parasites” value in test [9] was less than 10%. Also, the “Selectivity Index Amast.” value in test [10] came out at 112. In addition, the “Selectivity Index Epimast.” value in test [11] is listed as 75.
For `N#C[Se]Cc1ccccc1[N+](=O)[O-]` [compound 15], the IC50 in [1] is greater than 100000 nM; in test [5] it was 1300 ± 300 nM; in test [10], 500 nM; in test [11] (setting [12]), 900 ± 100 nM; in [11] (setting [13]), no more than 10000 nM. For the same molecule, in test [2], the “infection rate and average number of amastigotes per Vero cell” value is “decrease in both infection rate and number of amastigotes per cell in a time-dependent manner”. Moreover, the “reactivation of infection after immunosuppression (in words)” value in [3] is reported as “non-significant differences”. Besides, in test [4], the “parasitemia levels (counting BTs) during the acute CD” value was “non-significant differences”. Also, the “Selectivity Index Trypomast.” value in [5] is given as 14. Besides, the CC50 in test [6] is 17900 ± 1000 nM. The “total anti-T. cruzi IgG levels and splenomegaly” value in [7] is listed as “Slight or non-significant reductions”. Also, the “SOD inhibitory activity (in words)” value in test [8] (100 to 0.1 µM) is reported as “no inhibitory activity”. Besides, the “excretion of metabolites versus untreated parasites (in words)” value in test [9] is “strikingly increased”. Further, the “Selectivity Index Amast.” value in test [10] came to 36. Also, in test [11], the “Selectivity Index Epimast.” value amounted to 20.
For `O=S(=O)(Nc1ccc([Se][Se]c2ccc(NS(=O)(=O)c3ccc(-c4ccccc4)cc3)cc2)cc1)c1ccc(-c2ccccc2)cc1` [compound 46], the “Selectivity Index Trypomast.” value in test [5] was 24. Moreover, the IC50 in test [5] (28 h) was 2000 ± 300 nM; in test [10], 2300 ± 100 nM; in test [11] (setting [14]) it was 2700 ± 800 nM; in test [11] (setting [13]), no more than 10000 nM. Also, the CC50 in test [6] is 48600 ± 3500 nM. Further, the “Selectivity Index Amast.” value in [10] is reported as 21. In test [11], the “Selectivity Index Epimast.” value was found to be 18.
Regarding `Cn1ccnc1S(=O)(=O)Nc1ccc([Se][Se]c2ccc(NS(=O)(=O)c3nccn3C)cc2)cc1` [compound 47], the “Selectivity Index Trypomast.” value in test [5] worked out at 12. In addition, the IC50 in test [5] (28 h) was 3800 ± 400 nM; in test [10], 3000 ± 400 nM; in test [11] (setting [14]), 3600 ± 300 nM; in [11] (setting [13]), no more than 10000 nM. The CC50 in test [6] turned out to be 44700 ± 3000 nM. Also, in test [10], the “Selectivity Index Amast.” value was 15. Further, the “Selectivity Index Epimast.” value in test [11] came out at 12.

The values are drawn from publication PMC8147293, “Library of Selenocyanate and Diselenide Derivatives as In Vivo Antichagasic Compounds Targeting Trypanosoma cruzi Mitochondrion” (Pharmaceuticals, 2021).
